What was measured:
[1] = biological target: T1, beta-lactamase from Enterobacter cloacae (Enterobacter cloacae, UniProt P05364); assay: Time dependent inhibition of beta-lactamase, with dialysis to test for return of activity; format: biochemical; settings: 10 mL 0.1 units/mL beta-lactamase with and without 500 microM inhibitor, dialysed against 1 L 0.1 M sodium phosphate buffer (pH 7.0) with one exchange
T1 construct: purchased Sigma-Aldrich, St. Louis, Mo

[2] = biological target: T1, beta-lactamase from Enterobacter cloacae; assay: Assay (I) for beta-lactamase activity (Cefesone hydrolysis, absorbance at 486 nm), product inhibition; format: biochemical; settings: Cefesone substrate
Procedure: A chromogenic cephalosporin, Cefesone, is synthesized and isolated as described by Sutton et al. and used to monitor p-lactamase activity. A typical assay monitors the hydrolysis of Cefesone via the formation of a species which absorbs at 486 nm (molar absorptivity constant 16,000). Absorption is monitored as a function of time in 0.1 M, pH 7.0 sodium phosphate, 0.2 mM Cefesone and 4 volume percent DMSO cosolvent at 30° C. using a Beckman DU-40 spectrophotometer having a circulating water bath attached to the cuvette holder. The assay is initiated by addition and mixing of an appropriate amount of beta-lactamase.
The beta-lactamase assay using enzyme fro Enterobacter cloacae (Sigma-Aldrich, St. Louis, Mo.) was carried out as in Example 1 (assay I) above with compound 2. After the initial rate was determined the reaction was allowed to continue for two hours. Theoretical maximal absorbance at 486 nm is approximately 1.6 while the observed final absorbance was consistently 0.26.
where E is enzyme, S is substrate, P is product, ES is the enzyme-substrate complex, EP is the enzyme product complex, and k1, k−1, k2, and k−2 are rate constants and kcat is the catalytic rate constant. In the case of product inhibition k−2 is large with respect to k2, so as enzyme product accumulates, more enzyme is tied up in the enzyme-product complex and is unavailable for catalysis.

T1 sequence (P05364 21-381): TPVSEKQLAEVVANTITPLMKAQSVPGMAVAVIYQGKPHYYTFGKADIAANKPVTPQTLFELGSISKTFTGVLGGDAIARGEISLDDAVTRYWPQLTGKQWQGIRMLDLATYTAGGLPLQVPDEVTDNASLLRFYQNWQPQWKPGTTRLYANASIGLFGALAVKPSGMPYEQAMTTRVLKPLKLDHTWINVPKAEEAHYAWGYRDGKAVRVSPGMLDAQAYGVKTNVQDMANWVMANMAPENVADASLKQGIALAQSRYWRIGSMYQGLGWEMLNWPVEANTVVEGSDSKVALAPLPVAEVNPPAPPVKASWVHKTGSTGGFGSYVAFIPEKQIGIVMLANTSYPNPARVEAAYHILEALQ

return of beta-lactamase activity after dialysis [1] | observed final absorbance at 486 nm ([2]; reaction continued for two hours after the initial rate, theoretical maximal absorbance approximately 1.6) | type of inhibition inferred from final absorbance ([2]; reaction continued for two hours) | Compound
no return of activity | 0.26 | consistent with product inhibition | O=C(Cc1ccccc1)NC1C(=O)N2C(C(=O)O)=C(/C=C/C3CC3)CSC12 (stereo not shown) [compound 2, 3-vinylcyclopropane-7-(2-phenylacetamido)-3-Cephem-4-carboxylic acid]
no return of activity |  |  | O=C(Cc1ccccc1)NC1C(=O)N2C(C(=O)O)=C(/C=C/c3ccc(CBr)cc3)CSC12 (stereo not shown) [compound 4, 3-(1-bromomethyl-4-vinylbenzene)-7-(2-phenylacetamido)-3-Cephem-4-carboxylic acid]

Reference: US10239890B2, “Broad spectrum beta-lactamase inhibitors” (Gladius Pharmaceuticals Corporation, priority 2007, dated 2019)
